Measurements taken from patent US7727980B2, “Tricyclic androgen receptor modulator compounds and methods” (priority 2001, dated 2010).
Like-named read-outs stand apart in the source and are kept apart here.

How the values were obtained:
[1] = biological target: T1, human AR (Homo sapiens, UniProt P10275); assay: Co-transfection assay, AR agonist activity, CV-1 cells; format: cell-based; design: expressed in transfected cells; host or cells: CV-1 cells (African green monkey kidney fibroblasts), transient transfection with pRShAR; conditions: for AR Agonist CV-1 Cells Efficacy (%): percent maximal response relative to reference agonist DHT
T1 sequence (P10275 1-920): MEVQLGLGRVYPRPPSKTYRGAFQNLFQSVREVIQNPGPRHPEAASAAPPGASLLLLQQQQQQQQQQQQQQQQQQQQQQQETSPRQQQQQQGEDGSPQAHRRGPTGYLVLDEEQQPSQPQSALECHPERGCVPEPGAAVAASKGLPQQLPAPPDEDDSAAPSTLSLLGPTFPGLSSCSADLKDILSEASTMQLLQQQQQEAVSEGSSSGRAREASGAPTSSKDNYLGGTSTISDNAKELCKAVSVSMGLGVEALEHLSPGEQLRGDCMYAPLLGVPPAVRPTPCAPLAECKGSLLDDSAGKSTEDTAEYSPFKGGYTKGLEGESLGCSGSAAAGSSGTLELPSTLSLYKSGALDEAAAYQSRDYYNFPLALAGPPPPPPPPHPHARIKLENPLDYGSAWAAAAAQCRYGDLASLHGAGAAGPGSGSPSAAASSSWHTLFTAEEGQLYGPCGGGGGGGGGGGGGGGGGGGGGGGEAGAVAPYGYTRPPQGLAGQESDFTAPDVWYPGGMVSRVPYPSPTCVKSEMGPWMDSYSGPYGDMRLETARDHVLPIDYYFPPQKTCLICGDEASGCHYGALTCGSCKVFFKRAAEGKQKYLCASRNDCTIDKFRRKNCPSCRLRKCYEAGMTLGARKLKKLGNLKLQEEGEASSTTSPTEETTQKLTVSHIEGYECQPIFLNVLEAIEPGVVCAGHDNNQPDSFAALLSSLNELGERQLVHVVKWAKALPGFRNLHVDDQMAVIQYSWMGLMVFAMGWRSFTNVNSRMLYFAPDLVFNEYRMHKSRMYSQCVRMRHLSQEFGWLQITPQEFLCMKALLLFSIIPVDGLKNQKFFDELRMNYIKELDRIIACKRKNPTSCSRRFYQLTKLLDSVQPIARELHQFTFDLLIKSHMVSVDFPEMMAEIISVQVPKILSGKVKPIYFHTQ

[2] = biological target: T1, human AR; assay: Co-transfection assay, AR antagonist activity in presence of DHT, CV-1 cells; format: cell-based; design: expressed in transfected cells; host or cells: CV-1 cells (African green monkey kidney fibroblasts), transient transfection with pRShAR; conditions: CV-1 cells; for IC50: antagonist potency or IC50, DHT at its EC50 concentration; for AR Antagonist CV-1 Cells Efficacy (%): percent maximal inhibition, DHT at its EC50 concentration
[3] = biological target: T1, human AR; assay: AR whole cell competitive binding assay (3H-DHT), transfected COS-1 cells; design: expressed in transfected cells; transient transfection with pRShAR; conditions: COS-1 cells, 1 nM 3H-DHT, Cheng-Prusoff from IC50
[4] = AR Antagonist CV-1 Cells Potency (nM)
[5] = AR Agonist CV-1 Cells Potency (nM), agonist potency or EC50

Compound | AR Agonist CV-1 Cells Efficacy (%) [1] | IC50 [2, 4] | AR Antagonist CV-1 Cells Efficacy (%) [2] | Ki ([3]; AR Binding Ki (nM)) | EC50 [1, 5] | EC50 ([1]; agonist potency or EC50, read-out: AR Agonist CV-1 Cells Potency) | IC50 ([2]; read-out: AR Antagonist CV-1 Cells Potency) | Ki ([3]; read-out: AR Binding Ki)
O=c1cc(C(F)(F)F)c2cc3c(cc2[nH]1)CCCN3CC1CC1 [Compound 201, 4-Trifluoromethyl-6-cyclopropylmethyl-6,7,8,9-tetrahydropyrido[2,3-g]quinolin-2(1H)-one] | 76% | > 10000 nM | na (na = not active (i.e. efficacy of <20 and potency of >10,000)) | 10 nM | – | – | – | –
CC1=CC(C)(C)Oc2cc3oc(=O)cc(C(F)(F)F)c3cc21 [Compound 223, 6,8,8-Trimethyl-4-trifluoromethyl-8H-pyrano[3,2-g]coumarin] | na (na = not active (i.e. efficacy of <20 and potency of >10,000)) | 41 nM | 66% | 37 nM | > 10000 nM | – | – | –
CCC1=CC(C)(C)Oc2cc3oc(=O)cc(C(F)(F)F)c3cc21 [Compound 227, 6-Ethyl-8,8-dimethyl-4-trifluoromethyl-8H-pyrano[3,2-g]coumarin] | na (na = not active (i.e. efficacy of <20 and potency of >10,000)) | 25 nM | 75% | 33 nM | > 10000 nM | – | – | –
(+)-6,7-Dihydro-6-ethyl-4-trifluoromethyl-8H-pyrano[3,2-g]quinolin-2(1H)-one [Compound 218] | 82% | – | na (na = not active (i.e. efficacy of <20 and potency of >10,000)) | – | – | 10 nM | > 10000 nM | 4.1 nM
